Drawing on patent publication US9073895B2 (Boehringer Ingelheim International GmbH, priority 2010, dated 2015), this text covers IC50 for 14 molecules.

Each structure is given as a SMILES string. Bounds are passed on as bounds.

The IC50 is the concentration that gives 50% inhibition.

Assay [1] has as its target T1, recombinant human FLAP protein (Homo sapiens, UniProt P20292).
T1 construct: made in house; host or cells: Sf9 insect cells (membrane fraction, 100,000 x g pellet)
T1 sequence (P20292 1-161): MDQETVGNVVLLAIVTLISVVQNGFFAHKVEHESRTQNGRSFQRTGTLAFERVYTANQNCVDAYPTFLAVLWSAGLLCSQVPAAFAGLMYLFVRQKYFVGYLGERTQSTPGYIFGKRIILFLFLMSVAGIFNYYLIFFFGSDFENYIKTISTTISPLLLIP
The experiment in a line: FLAP binding assay (SPA, displacement of [125I]L-691,831). To be noted: membranes of sf9 cells expressing human FLAP, [125I]L-691,831 probe; read-out: hFLAP binding IC50. The procedure, abridged:
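Membranes from sf9 cells expressing human FLAP (5 μg/well) were bound to WGA SPA beads (200 μg/well). Nonspecific binding was defined with 10 μM unlabelled L-691,831.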
For orientation: Displacement assays read how much labelled ligand stays bound in the presence of the test substance.

The subject of assay [2] is synthesis of LTB4 in human whole blood. The experiment in a line: Human whole blood LTB4 production inhibition assay. It is filed as cell-based. To be noted: heparinized human whole blood, calcimycin 20 μM, plasma LTB4; read-out: HuWB IC50. An outline of the steps: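 Heparinized human whole blood preincubated with compound 15 min at 37 °C, then stimulated with calcimycin (20 μM final) for 30 min at 37 °C. Plasma LTB4 measured after low-speed centrifugation by antibody-based homogeneous time-resolved fluorescence.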

`Nc1ncc(-c2ccc(C3(C(=O)Nc4ccccc4)CCC3)cc2)cn1` [Example 203, 1-[4-(2-aminopyrimidin-5-yl)phenyl]-N-phenylcyclobutanecarboxamide]: the results for the IC50 in assay [1] and in assay [2] were 13.7 nM and 3250 nM, respectively.
On the same counts, the results for `Nc1ncc(-c2ccc(C3(C(=O)Nc4ccc5ncsc5c4)CCC3)cc2)cn1` [Example 204, 1-[4-(2-aminopyrimidin-5-yl)phenyl]-N-(1,3-benzothiazol-6-yl)cyclobutanecarboxamide] are 2.8 nM and 415 nM.
The corresponding values for `Cc1csc(NC(=O)C2(c3ccc(-c4cnc(N)nc4)cc3)CCC2)n1` [Example 205, 1-[4-(2-aminopyrimidin-5-yl)phenyl]-N-(4-methyl-1,3-thiazol-2-yl)cyclobutanecarboxamide] are 8.4 nM and 922 nM.
With `COc1ccc(-c2ccc(NC(=O)C3(c4ccc(-c5cnc(N)nc5)cc4)CCC3)nc2)cn1` [Example 208, 1-[4-(2-aminopyrimidin-5-yl)phenyl]-N-(6'-methoxy-3,3'-bipyridin-6-yl)cyclobutanecarboxamide], the IC50 in assay [1] worked out at 3.35 nM; in assay [2] it was 459 nM.
On the same counts, the results for `Cc1ccc(NC(=O)C2(c3ccc(-c4cnc(N)nc4)cc3)CCC2)nc1` [Example 210, 1-[4-(2-aminopyrimidin-5-yl)phenyl]-N-(5-methylpyridin-2-yl)cyclobutanecarboxamide] are 5.1 nM and 792 nM.
The corresponding values for `COc1ccc(NC(=O)C2(c3ccc(-c4cnc(N)nc4)cc3)CCC2)cn1` [Example 213, 1-[4-(2-aminopyrimidin-5-yl)phenyl]-N-(6-methoxypyridin-3-yl)cyclobutanecarboxamide] are 12.6 nM and 333 nM.
The corresponding values for `Nc1ncc(-c2ccc(C3(C(=O)Nc4cnccn4)CCC3)cc2)cn1` [Example 214, 1-[4-(2-aminopyrimidin-5-yl)phenyl]-N-(pyrazin-2-yl)cyclobutanecarboxamide] are 24 nM and 1070 nM.
As for `Nc1ncc(-c2ccc(C3(C(=O)Nc4ccnnc4)CCC3)cc2)cn1` [Example 215, 1-[4-(2-aminopyrimidin-5-yl)phenyl]-N-(pyridazin-4-yl)cyclobutanecarboxamide], the IC50 in assay [1] was found to be 17.7 nM; in assay [2], 706 nM.
The corresponding values for `Cn1ccc(NC(=O)C2(c3ccc(-c4cnc(N)nc4)cc3)CCC2)cc1=O` [Example 216, 1-[4-(2-aminopyrimidin-5-yl)phenyl]-N-(1-methyl-2-oxo-1,2-dihydropyridin-4-yl)cyclobutanecarboxamide] are 91.5 nM and 3040 nM.
On the same counts, the results for `COc1ccc(NC(=O)C2(c3ccc(-c4cnc(N)nc4)cc3)CCC2)nc1` [Example 217, 1-[4-(2-aminopyrimidin-5-yl)phenyl]-N-(5-methoxypyridin-2-yl)cyclobutanecarboxamide] are 8.25 nM and 389 nM.
The corresponding values for `Cn1nccc1-c1ccc(NC(=O)C2(c3ccc(-c4cnc(N)nc4)cc3)CCOCC2)nc1` [Example 218, 4-[4-(2-aminopyrimidin-5-yl)phenyl]-N-[5-(1-methyl-1H-pyrazol-5-yl)pyridin-2-yl]tetrahydro-2H-pyran-4-carboxamide] are 32.5 nM and 958 nM.
On to `Nc1ncc(-c2ccc(C3(C(=O)Nc4ccc(O)nc4)CCC3)cc2)cn1` [Example 221, 1-[4-(2-aminopyrimidin-5-yl)phenyl]-N-(6-hydroxypyridin-3-yl)cyclobutanecarboxamide], for which the figures for the IC50 in assay [1] and in assay [2] were 290 nM and above 3000 nM, respectively.
On the same counts, the results for `Cn1ccc(NC(=O)C2(c3ccc(-c4cnc(N)nc4)cc3)CCC2)n1` [Example 222, 1-[4-(2-aminopyrimidin-5-yl)phenyl]-N-(1-methyl-1H-pyrazol-3-yl)cyclobutanecarboxamide] are 43.5 nM and 1230 nM.
The corresponding values for `Cc1nc(-c2ccc(NC(=O)C3(c4ccc(-c5cnc(N)nc5)cc4)CCCC3)nc2)cs1` [Example 223] are 7.15 nM and 1670 nM.
